Measurements reported in ChEMBL document CHEMBL5344444, “1-Benzylindoles as inhibitors of cytosolic phospholipase A2α: synthesis, biological activity, aqueous solubility, and cell permeability” (RSC Med Chem, 2024).
Converted amounts (≈) assume the structure as drawn. The source made the active and inactive calls. The calls are words filed in the database; no cut-off is given here.

Legend:
[1] = Inhibition of porcine platelets cPLA2 alpha using 1-stearoyl-2-arachidonoyl-sn-glycero-3-phosphocholine as substrate incubated for 60 mins by RP-HPLC -MS analysis; parameters: species or system Sus scrofa
[2] = Aqueous solubility of compound in phosphate buffered saline at pH 7.4 incubated for 10 min by RP-HPLC analysis; assay type: physicochemical
[3] = Lipophilicity, logP of compound in acetonitrile/phosphate buffered saline at pH 7.4 by RP-HPLC analysis; assay type: physicochemical
Sus scrofa = species: Sus scrofa; assay: Inhibition of porcine platelets cPLA2 alpha using 1-stearoyl-2-arachidonoyl-sn-glycero-3-phosphocholine as substrate at 10 uM incubated for 60 mins by RP-HPLC -MS analysis relative to control
[4] = Drug metabolism in human CaCo-2 cells assessed as beta-oxidation of pentanoic acid chain by measuring 3-(5-{[5-Chloro-1-(2,4-dichlorobenzyl)indol-3-yl]methyl}-2H-tetrazol-2-yl) propionic acid formation at 10 uM; assay type: ADME, cell-based; details: caco-2, 10 µM
[5] = Apparent permeability coefficient in human CaCo-2 cells at 10 uM incubated for 2 hrs by HPLC-MS analysis; assay type: ADME, cell-based

| SMILES | IC50 [1] [µM] | inhibition (Sus scrofa) | other results |
| --- | --- | --- | --- |
| O=C(O)c1ccc(N/N=C/c2cn(Cc3ccc(Cl)c(Cl)c3)c3ccccc23)cc1 |  | 20% |  |
| Cc1c(CCOc2ccc(C(=O)O)cc2)c2cc(Cl)ccc2n1C(c1ccccc1)c1ccccc1 | 0.23 |  | solubility at 10 min [2]: < 1 µg/mL; logP [3]: 6.2 |
| O=C(O)CCCCn1nnc(Cc2cn(Cc3ccc(Cl)cc3Cl)c3cc(F)ccc23)n1 | 0.75 |  |  |
| O=C(O)c1ccc2c(c1)c(C(=O)C(F)(F)F)cn2CCc1cn(Cc2ccc(Cl)cc2Cl)c2ccccc12 | 8 |  |  |
| CN(/N=C/c1cn(Cc2ccc(Cl)cc2Cl)c2ccccc12)c1ccc(C(=O)O)cc1 |  | 27% |  |
| O=C(O)CCCCn1nnc(Cc2cn(Cc3ccc(Cl)cc3Cl)c3ccc(OC(F)(F)F)cc23)n1 | 0.57 |  |  |
| O=C(O)c1ccc(N/N=C/c2cn(Cc3cccc(Oc4ccccc4)c3)c3ccccc23)cc1 |  | 17% |  |
| O=C(O)CCCCCn1nnc(-c2cn(Cc3ccc(Cl)cc3Cl)c3ccccc23)n1 | 9 |  |  |
| O=C(O)c1ccc(N/N=C/c2cccc3c2ccn3Cc2ccc(Cl)cc2Cl)cc1 |  | 24% |  |
| O=C(O)c1ccc(N/N=C/c2cn(Cc3ccc(C(F)(F)F)cc3)c3ccccc23)cc1 |  | 15% |  |
| O=C(O)CCc1ccc2c(c1)c(CCc1ccccc1)cn2-c1ccc(Oc2ccccc2)cc1 | 0.29 |  | solubility at 10 min [2]: < 1 µg/mL; logP [3]: 6.4 |
| O=C(CCc1cn(Cc2ccc(Cl)cc2Cl)c2ccccc12)Oc1ccc(C(=O)O)cc1 | 6 |  |  |
| COc1ccc2c(c1)c(Cc1nnn(CCCCC(=O)O)n1)cn2Cc1ccc(Cl)cc1Cl | 4.7 |  |  |
| O=C(O)CCCCn1nnc(Cc2cn(Cc3ccc(Cl)cc3Cl)c3cc(C(F)(F)F)ccc23)n1 | 0.17 |  |  |
| O=C(O)c1ccc(N/N=C/c2ccc3ccn(Cc4ccc(Cl)cc4Cl)c3c2)cc1 |  | 32% |  |
| O=C(O)CCCCn1nnc(Cc2cn(Cc3ccc(Cl)cc3Cl)c3ccc(-c4ccc(Cl)cc4)cc23)n1 | 0.9 |  |  |
| O=C(O)c1ccc(N/N=C/c2cn(Cc3ccc(Oc4ccccc4)cc3)c3ccccc23)cc1 |  | inactive |  |
| O=C(O)c1ccc(N/N=C/c2ccc3c(ccn3Cc3ccc(Cl)cc3Cl)c2)cc1 |  | 30% |  |
| COc1ccc2c(c1)c(CC(=O)O)c(C)n2C(=O)c1ccc(Cl)cc1 [INDOMETHACIN] |  |  | Papp at 2 h, 10 µM [5]: 27 ×10⁻⁶ cm/s; solubility at 10 min [2]: 260 µg/mL (≈ 727 µM); logP [3]: 2.9 |
| O=C(O)CCCCn1nnc(Cc2cn(Cc3ccc(Cl)cc3Cl)c3ccc(OCc4ccc(Cl)cc4)cc23)n1 | 5.3 |  |  |

| SMILES | IC50 [1] [µM] | inhibition (Sus scrofa) | other results |
| --- | --- | --- | --- |
| O=C(Cc1cn(Cc2ccc(Cl)cc2Cl)c2ccccc12)Oc1ccc(C(=O)O)cc1 | 3.2 |  |  |
| O=C(O)CCCCn1nnc(Cc2cn(Cc3ccc(Cl)cc3Cl)c3ccc(-c4ccccc4)cc23)n1 | 3.2 |  |  |
| O=C(O)c1ccc2nn(CCc3cn(Cc4ccc(Cl)cc4Cl)c4ccccc34)cc2c1 | > 10 | 32% |  |
| O=C(O)c1ccc(N/N=C/c2cn(Cc3ccccc3)c3ccccc23)cc1 |  | 16% |  |
| O=C(O)c1ccc(OC(=O)c2cn(Cc3ccc(Cl)cc3Cl)c3ccccc23)cc1 | > 10 | 45% |  |
| O=C(O)c1ccc2nn(CCc3cn(Cc4ccc(Cl)cc4Cl)c4ccccc34)nc2c1 | 3.9 |  |  |
| O=C(O)CCCCn1nnc(Cc2cn(Cc3ccc(Cl)cc3Cl)c3ccc(C(F)(F)F)cc23)n1 | 0.074 |  | solubility at 10 min [2]: < 1 µg/mL; logP [3]: 4.9 |
| O=C(O)CCCn1nnc(-c2cn(Cc3ccc(Cl)cc3Cl)c3ccccc23)n1 | > 10 | 22% |  |
| O=C(O)c1ccc(N/N=C/c2cn(Cc3ccccc3Oc3ccccc3)c3ccccc23)cc1 |  | 15% |  |
| O=C(O)c1ccc2c(c1)c(C(=O)O)cn2CCc1cn(Cc2ccc(Cl)cc2Cl)c2ccccc12 | > 10 | 24% |  |
| COC(=O)c1cn(CCc2cn(Cc3ccc(Cl)cc3Cl)c3ccccc23)c2ccc(C(=O)O)cc12 | 7.1 |  |  |
| O=C(O)c1ccc(OCCc2cn(Cc3ccc(Cl)cc3Cl)c3ccccc23)cc1 | 1.1 |  |  |
| O=C(O)c1ccc2c(ccn2CCc2cn(Cc3ccc(Cl)cc3Cl)c3ccccc23)c1 | > 10 | 41% |  |
| O=C(O)c1ccc2c(cnn2CCc2cn(Cc3ccc(Cl)cc3Cl)c3ccccc23)c1 | 3.8 |  |  |
| O=C(O)c1ccc(Cn2nnc(-c3cn(Cc4ccc(Cl)cc4Cl)c4ccccc34)n2)cc1 | > 10 | 37% |  |
| COc1ccc2c(Cc3nnn(CCCCC(=O)O)n3)cn(Cc3ccc(Cl)cc3Cl)c2c1 | 4.6 |  |  |
| O=C(O)c1ccc(N/N=C/c2cn(Cc3ccc(Cl)cc3Cl)c3ccccc23)cc1 | 22 | 21% |  |
| O=C(O)c1ccc(Cn2nnc(Cc3cn(Cc4ccc(Cl)cc4Cl)c4ccccc34)n2)cc1 | 2.8 |  |  |
| Cc1noc(-c2cn(CCc3cn(Cc4ccc(Cl)cc4Cl)c4ccccc34)c3ccc(C(=O)O)cc23)n1 | > 10 | 47% |  |

Second part, led by results:

| IC50 [1] [µM] | inhibition (Sus scrofa) | SMILES | other results |
| --- | --- | --- | --- |
| 0.71 |  | O=C(O)CCCCn1nnc(Cc2cn(Cc3ccc(Cl)cc3Cl)c3ccccc23)n1 | solubility at 10 min [2]: 152 µg/mL (≈ 332 µM); logP [3]: 4 |
| > 10 | 48% | O=C(O)CCCCn1nnc(Cc2cn(Cc3ccc(F)cc3)c3ccccc23)n1 |  |
| 5.6 |  | O=C(O)CCCCn1nnc(Cc2cn(Cc3ccc(Cl)c(Cl)c3)c3ccccc23)n1 |  |
| 7 |  | Cc1ccc(Cn2cc(Cc3nnn(CCCCC(=O)O)n3)c3ccccc32)cc1 |  |
| 0.071 |  | O=C(O)CCCCn1nnc(Cc2cn(Cc3ccc(Cl)cc3Cl)c3ccc(Cl)cc23)n1 | Drug metabolism [4]: Metabolite_Detected; Papp at 2 h, 10 µM [5]: 15 ×10⁻⁶ cm/s; solubility at 10 min [2]: < 1 µg/mL; logP [3]: 4.7 |
| > 10 | 48% | O=C(O)CCCCn1nnc(-c2cn(Cc3ccc(Cl)cc3Cl)c3ccccc23)n1 |  |
| 1 |  | Cc1ccc2c(Cc3nnn(CCCCC(=O)O)n3)cn(Cc3ccc(Cl)cc3Cl)c2c1 |  |
| > 10 | 33% | O=C(O)CCCCn1nnc(Cc2cn(Cc3cccc(Cl)c3)c3ccccc23)n1 |  |
| > 10 | 41% | O=C(O)CCCCn1nnc(Cc2cn(Cc3ccccc3)c3ccccc23)n1 |  |
|  | inactive | O=C(O)CCCCn1nnc(Cc2cn(Cc3ccc(C(F)(F)F)cc3)c3ccccc23)n1 |  |
| 0.36 |  | O=C(O)CCCCn1nnc(Cc2cn(Cc3ccc(Cl)cc3Cl)c3cc(Cl)ccc23)n1 |  |
| 0.2 |  | O=C(O)CCCCn1nnc(Cc2cn(Cc3ccc(Cl)cc3Cl)c3ccc(F)cc23)n1 | solubility at 10 min [2]: 74 µg/mL (≈ 155 µM); logP [3]: 4.1 |
| 1.4 |  | O=C(O)CCCCCn1nnc(Cc2cn(Cc3ccc(Cl)cc3Cl)c3ccccc23)n1 |  |
| 0.21 |  | Cc1ccc2c(c1)c(Cc1nnn(CCCCC(=O)O)n1)cn2Cc1ccc(Cl)cc1Cl | solubility at 10 min [2]: 15 µg/mL (≈ 31.8 µM); logP [3]: 4.6 |
| > 10 | 47% | O=C(O)CCCCn1nnc(Cc2cn(Cc3ccc(-c4ccccc4)cc3)c3ccccc23)n1 |  |
| 2.9 |  | O=C(O)CCCCn1nnc(Cc2cn(Cc3ccccc3Cl)c3ccccc23)n1 |  |
| 4.8 |  | O=C(O)CCCCn1nnc(CCc2cn(Cc3ccc(Cl)cc3Cl)c3ccccc23)n1 |  |
| > 10 | 23% | O=C(O)CCCn1nnc(CCc2cn(Cc3ccc(Cl)cc3Cl)c3ccccc23)n1 |  |
| > 10 | 32% | O=C(O)CCCn1nnc(Cc2cn(Cc3ccc(Cl)cc3Cl)c3ccccc23)n1 |  |
| > 10 | 19% | O=C(O)CCCCn1nnc(Cc2cn(Cc3c(Cl)cccc3Cl)c3ccccc23)n1 |  |
| 4.2 |  | O=C(O)CCCCn1nnc(Cc2cn(Cc3ccc(Cl)cc3)c3ccccc23)n1 |  |
